Patent US10669227B2 (THE RESEARCH FOUNDATION OF STATE UNIVERSITY OF NEW YORK, priority 2009, dated 2020)

Key:
IL-1β [1] = experiment: Inhibition of IL-1β production by LPS-stimulated monocytes; assay type: cell-based; details: Homo sapiens, Monocyte, 18 h, read-out: % Inhibition of IL-1β produced by stimulated Monocytes with LPS @ 18 h
Experimental: (§1) Briefly, human peripheral blood monocytes (HMs) were isolated from a leukocyte concentrate by density gradient centrifugation (Lymphoprep) and the isolated HMs cultured (2 h, 37° C.) to remove non-adherent cells. The adherent HMs wore cultured for 18 h (1×10^6 cells/well, 24-well plates)±endotoxin (LPS)±different compounds dissolved in DMSO (the final concentration of DMSO in the RPMI serum-free culture media with Pen./Strep. antibiotics was no greater than 0.5%). After incubation, the proinflammatory cytokines, TNFα, […], MCP-1 and IL-6 were measured in the conditioned media by ELISA and cytotoxicity was assessed by measuring the absorbance (490 nm) of formazan produced by reduction of MTS. The HMs alone±0.1-0.5% DMSO produced minimal levels of these pro-inflammatory cytokines. However, addition of 100 ng/ml or 10 μg/ml of LPS both dramatically stimulated cytokine production.

MCP-1 = experiment: Inhibition of MCP-1 production by LPS-stimulated monocytes; assay type: cell-based, human
Experimental: as §1
(§2) The cytokine levels were measured by Luminex multiplex, a method that allows the simultaneous measurement of different biological markers.

VEGF = VEGF level in LPS-challenged human monocytes, Luminex multiplex; assay type: cell-based; details: 2 μM, FIG. 2
Experimental: as §2

NFκB activation = NFκB activation in human monocytes in cell culture; assay type: cell-based; details: Monocyte
[2] = tested on: p38 MAP kinase activation; experiment: p38 MAP kinase activation, preliminary studies; assay type: cell-based
[3] = molecular target: MMP-9 (human leukocyte gelatinase) (Homo sapiens (Human), UniProt P14780); experiment: MMP-9 inhibition in vitro, octapeptide substrate, HPLC; assay type: biochemical; details: read-out: Maximum Inhibition At 100 μM compound (MMP-9)
Sequence of MMP-9 (human leukocyte gelatinase) (P14780 94-707): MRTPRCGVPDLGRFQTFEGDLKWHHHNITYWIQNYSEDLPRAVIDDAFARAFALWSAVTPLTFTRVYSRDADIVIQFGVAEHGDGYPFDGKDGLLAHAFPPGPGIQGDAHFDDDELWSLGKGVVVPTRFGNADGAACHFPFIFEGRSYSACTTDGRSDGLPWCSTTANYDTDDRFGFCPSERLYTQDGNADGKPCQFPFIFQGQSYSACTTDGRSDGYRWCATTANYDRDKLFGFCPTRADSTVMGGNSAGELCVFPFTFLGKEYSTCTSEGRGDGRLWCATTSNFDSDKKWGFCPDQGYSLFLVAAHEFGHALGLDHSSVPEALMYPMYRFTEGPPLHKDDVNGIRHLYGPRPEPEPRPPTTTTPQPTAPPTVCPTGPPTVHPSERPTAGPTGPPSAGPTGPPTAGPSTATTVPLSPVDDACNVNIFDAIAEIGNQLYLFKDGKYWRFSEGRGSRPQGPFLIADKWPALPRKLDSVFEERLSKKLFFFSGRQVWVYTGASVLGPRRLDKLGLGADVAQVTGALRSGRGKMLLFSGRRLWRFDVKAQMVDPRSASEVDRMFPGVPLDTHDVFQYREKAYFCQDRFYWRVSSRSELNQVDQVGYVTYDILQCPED
Description: In contrast all three chemically-modified curcumins at 100 μm final concentration inhibited gelatinase activity by 68-100% (FIG. 6 and Table 6).

[4] = Type I diabetic rat model, 1-week oral treatment: glucose, adverse events, serum level; assay type: in vivo; details: diabetic rats
Description: The purpose of the following was to establish an in vivo model of excessive collagen degradation to be used to test efficacy of the compounds of the subject invention. Male Sprague-Dawley rats (typically 300-400 gms of body weight), specific viral antibody free, were ordered from Charles River. Following general anesthesia via isoflurane anesthetic inhalation, diabetes was induced by an I.V. administration of streptozotocin (STZ) (50*mg/kg body weight) (Sigma Chemical Co., St Louis, Mo., USA) diluted in 0.9% citrated saline (pH 4.5), after 12 hours of fasting. After the streptozotocin injection, the animals were given free access to water and food. […] In this test, the test-paper color changes to dark brown which indicates glycosuria.
(§3) The latter assays were carried out using Western blot analysis with monoclonal antibodies to MMP-8.

[5] = molecular target: MMP-2 (72 kDa gelatinase) (Rattus norvegicus (Rat), UniProt P33436); experiment: Diabetic rat, plasma gelatinase by gelatin zymography (MMP-2); assay type: in vivo; details: diabetic rats, 100 mg/kg oral once/day, 7 days
collagenase-2 (MMP-8) = collagenase-2 (MMP-8) (Rattus norvegicus (Rat), UniProt O88766); experiment: Diabetic rat, MMP-8 in skin extracts by Western blot; assay type: in vivo; details: diabetic rats, 100 mg/kg oral once/day, 7 days
Experimental: as §3

[6] = Type I diabetic rat model, 3-week oral treatment: blood glucose and hemoglobin A1c; assay type: in vivo; details: diabetic rats, 100 and 500 mg/kg oral daily, 3 weeks
Experimental: (§4) At the end of the treatment protocol, the rats were sacrificed, blood samples were collected, and whole skin (except over limbs) and qingiva were dissected (the skin, because of ample quantities of tissue were analyzed for each rat separately; the gingiva, because of the tiny amounts that could be harvested per rat, were pooled for each experimental group, as prescribed previously for tetracycline studies (30). In addition, the jaw bones were collected, defleshed, and bone loss around the teeth analyzed morphometrically as described previously (42, 43).

MMP-9 = MMP-9 (Rattus norvegicus (Rat), UniProt P50282); experiment: Diabetic rat, gingiva gelatinase by gelatin zymography (MMP-9); assay type: in vivo; details: diabetic rats, 100 and 500 mg/kg oral daily, 3 weeks
Experimental: as §4
This appearance of MMP-9 only in the gingiva (FIG. 10), but not the skin (FIG. 12), of the diabetic rats is likely the result of the oral bacteria inducing inflammation in the gingiva of these immune-suppressed UD rats, whereas the skin is not exposed to this onslaught of bacteria particularly the anaerobic gram-negative bacteria in the mouth that cause periodontal and gingival inflammation.

IL-1β [7] = molecular target: IL-1β (Rattus norvegicus (Rat), UniProt Q63264); experiment: Diabetic rat, IL-1β in gingiva extracts by ELISA; assay type: in vivo; details: 3 weeks
Experimental: as §4

alveolar bone loss = experiment: Diabetic rat, alveolar bone loss, morphometric; assay type: in vivo; details: 500 mg/kg oral, 3 weeks
Experimental: as §4
Alveolar bone loss (the signature pathologic event in inflammatory periodontal disease) was assessed in the defleshed jaws of the compound 1-treated (TX) and untreated rats.

MMP-2 = experiment: Diabetic rat, MMP-2 in skin by ELISA; assay type: in vivo; details: both low and high doses, 3 weeks
Experimental: as §4

[8] = tested on: neonatal rat ventricular myocytes; experiment: Hydrogen peroxide induced LDH release; assay type: cell-based; details: 10 μM, H2O2 100 μM, 24 h
Experimental: Neonatal rat ventricular myocytes, serum starved for 24 h, were treated with the inhibitors 1 h prior to the addition of 100 μM of hydrogen peroxide (Sigma). LDH release in the conditioned media was quantified using CytoTox-ONE Homogeneous Membrane Integrity Assay reagent (Promega) at the indicated time points.

caspase-3 activity = experiment: Doxorubicin mediated caspase-3 activity; assay type: cell-based, rat; details: 10 μM, doxorubicin 500 nM, any time point
Experimental: Neonatal rat ventricular myocytes, serum starved for 24 h, were treated with the inhibitors 1 h prior to the addition of 500 nM of doxorubicin (Sigma). At the indicated time points cells were washed with ice-cold phosphate buffered saline and lysed using RIPA buffer (Pierce) containing protease and phosphatase inhibitors (Sigma). Caspase-3 activity in the cell lysates was measured by incubation with 7-amino-4-trifluoromethyl coumarin (Enzo).

MMP-13 (Collagenase-3) = MMP-13 (Collagenase-3) (Homo sapiens (Human), UniProt P45452); experiment: MMP-13 inhibition in vitro, octapeptide substrate, HPLC; assay type: biochemical; details: read-out: MMP-13 Maximum Inhibition @100 μM

COC(=O)C(C(=O)/C=C/c1ccc(O)c(OC)c1)C(=O)/C=C/c1ccc(O)c(OC)c1 [Compound 1, 1,7-Bis(4-hydroxy-3-methoxyphenyl)-4-methoxycarbonylhepta-1E,6E-dien-3,5-dione]
inhibition at 2 µM (IL-1β [1]; 2 uM): 41%
inhibition at 25 µM (IL-1β [1]; 25 uM): 100%
inhibition at 50 µM (IL-1β [1]; 50 uM): 100%
MCP-1 level in LPS-challenged human monocytes, Luminex multiplex (MCP-1; 2 μM, FIG. 2): potent in reducing
inhibition at 2 µM (MCP-1; Homo sapiens, Monocyte, 18 h, 2 uM, read-out: % Inhibition of MCP-1 produced by stimulated Monocytes with LPS @ 18 h): 74%
inhibition at 25 µM (MCP-1; Homo sapiens, Monocyte, 18 h, 25 uM, read-out: % Inhibition of MCP-1 produced by stimulated Monocytes with LPS @ 18 h): 78%
inhibition at 50 µM (MCP-1; Homo sapiens, Monocyte, 18 h, 50 uM, read-out: % Inhibition of MCP-1 produced by stimulated Monocytes with LPS @ 18 h): 79%
VEGF level in LPS-challenged human monocytes, Luminex multiplex (VEGF): potent in reducing
inhibition at 2 µM (NFκB activation; CRP/oxid-LDL Complex): 91%
inhibition at 10 µM (NFκB activation; CRP/oxid-LDL Complex): 100%
inhibition at 2 µM (NFκB activation; Endotoxin (LPS)): 24%
inhibition at 10 µM (NFκB activation; Endotoxin (LPS)): 85%
Effect on p38 MAP kinase activation [2]: little/no effect
inhibition at 100 µM [3]: 72%
Severity of hyperglycemia (serum glucose) ([4]; 100 mg/kg oral once/day, 7 days): no effect on the severity of hyperglycemia
Description of AEs ([4]; n = 6, 1 week oral treatment): Minor inflamed
Incidence of Adverse Events (AEs) ([4]; n = 6, 1 week oral treatment): 1/6
concentration at 7 days ([4]; male, Sprague-Dawley, rat, serum, 100 mg/kg, 1 week oral treatment, FIG. 7): ~100 ng/mL
Plasma MMP-2 level [5]: reduced the excessive levels of MMPs to essentially normal levels
MMP-8 level in skin extracts (collagenase-2 (MMP-8)): A similar pattern was observed
Blood glucose [6]: no significant effect
Hemoglobin A1c level [6]: no significant effect
MMP-9 level in gingiva (MMP-9): reduced MMP-9 to the undetectable levels
Reduction of IL-1β in gingiva vs untreated diabetic (IL-1β [7]; higher oral dose (500 mg/kg)): 95%
Reduction of IL-1β in gingiva vs untreated diabetic (IL-1β [7]; lower dose (100 mg/kg)): about 18%
Reduction in alveolar bone loss vs untreated groups (alveolar bone loss): less effective
Reduction of elevated MMP-2 level in skin (MMP-2): 28%
LDH release [8]: less dramatic effect
Effect on doxorubicin mediated caspase-3 activity (caspase-3 activity): None of the MMP inhibitors, including compound 1, negatively modulate caspase-3 activity
inhibition at 100 µM (MMP-13 (Collagenase-3)): 69%
